Read-outs that look alike come from different tables or passages of the source. Starred links: 1 amine or outer side, 2 acyl side, 3 side chain; linkers in the order of their positions; H or OH if unused. Positions of bridges follow the written chain, without caps; N, C: chain ends. Non-standard residues stand in square brackets, D forms with d. Residues, ends and D or L forms follow the SMILES beside them. Chains are numbered I, II in the order given. Actinocin(9to1) = Cc1c2oc3c(C)ccc(C(=O)[*:1])c3nc-2c(C(=O)[*:2])c(N)c1=O; NMeV = CN[C@H](C(=O)O)C(C)C; Sar = CNCC(=O)O

These results are taken from US10174312B2 (priority 2014, dated 2019).

Test [1] concerns pool of the S. pombe heterozygous deletion strain. Type of test: cell-based, Schizosaccharomyces pombe. The following applies: for growth inhibition effect on the strain (sampling errors confirmed, FIG. 3): 20 generation subculture, expected vs sampled generation. As to the method:
In the course of 10 generation sub-culture and 20 generation sub-culture, OD600 was measured to confirm the doubling time. Then, pool fitness by doubling time (PFDT) was calculated by the below mathematical formula 2. […] PFDT=doubling time of the pool not-treated with the drug/doubling time of the pool treated with the drug [Mathematical Formula 2]

Test [2] has as its system S. pombe genome-wide heterozygous deletion strain. Kind of test: Chemical-genetic profile by DNA chip array (S. pombe compendium, DI-HI / ecDT screening). Type of test: cell-based, Schizosaccharomyces pombe. The text has this: To make the genetic compendium of S. pombe heterozygous deletion strain pool, DNA was separated from the strain by the conventional method, followed by chip-hybridization to quantify the growth of the strain (S. E. Pierce, E. L. Fung, D. F. Jaramillo, et al., Nat. Methods 3 (2006) 601-603).
Then, a short DNA barcode sequence in 20 bp long (named “TAG”) was inserted in the complementary region of the genomic DNA, followed by amplification with universal primers for the flanking sequence. The amount of the amplified TAG was judged by the growth of each strain, which was quantified by using the DNA chip (Affymetrix, USA) constructed with the complementary sequence of TAG.
The result of the quantitative DNA chip array was not modified by background correction, normalization, or perfect match (PM) and the mean value was used as raw intensity (Iraw). The parameter for preprocessing the raw intensity was calculated by DNA chip array according to the conventional method informed to those in the art. To calculate the minimum value of the comparative fitness by saturated intensity, modification was performed according to the below mathematical formula 3. The normalized constant was applied to each analysis based on the modified raw intensity. For the modification, chip array was repeated 5 times with the glycerol stock deletion strain pool and the mean value was obtained. The normalized final intensity was log 2-transformed for after analysis. Icorrected=Iraw×exp(−Irawα) [Mathematical Formula 3]
In the mathematical formula 3, ‘Icorrected’ indicates the modified intensity; ‘Iraw’ indicates the raw intensity; and ‘α’ indicates the variable of modification function calculated with UPTAG and DNATAG which are 0.0003412759 and 0.0002767581 respectively.
Error model was calculated according to the conventional method in order to calculate the fitness score of the drug treated S. pombe heterozygous deletion strain.
The compendium of the drug competitive growth experiment was used as the reference set. […] N and the line of drugs of 1 . . . j . . . M. The average and variable of the reference set of each strain were calculated by the below mathematical formula 4.
Z-scores and p-values of the 4400 heterozygous deletion strains were obtained with 47 drugs. The amount of each strain was represented by UPTAG and DNTAG inserted in the upstream and the downstream of the gene that had been eliminated from each strain. To investigate the significance of p-value presenting the detect of the growth in the drug treated strain, the expected intensity of UPTAG and DNTAG in the strain was calculated by the mathematical formula 5. From the mean value thereof, Z-score presenting the statistical distance was obtained. The obtained Z-score was applied to error function or standard normal distribution according to the mathematical formula 6, and the growth detect of each strain was judged by p-value in the range of 0˜1.
The growth defect by the presence or absence of each drug was investigated by the method illustrated in the schematic diagram of FIG. 5 to judge whether the heterozygous deletion gene was haplo-insufficient (HI) or haplo-sufficient (HS).

Test [3] has as its system S. cerevisiae heterozygous deletion strain library. The following applies: cited from earlier work.
Setting [4] is: each drug at its Dose(M) of Table 2, 25° C.
Setting [5] is: each drug at its Dose(M) of Table 2, 25° C., PFDT = doubling time untreated pool / treated pool.
Where [6] appears, read: second, lower dose 1.50E−08 M (Drug ID 67.2, 71.2).

`Cc1c2oc3c(C)ccc(C(=O)N[C@@H]4C(=O)N[C@H](C(C)C)C(=O)N5CCC[C@H]5C(=O)N(C)CC(=O)N(C)[C@@H](C(C)C)C(=O)O[C@@H]4C)c3nc-2c(C(=O)N[C@@H]2C(=O)N[C@H](C(C)C)C(=O)N3CCC[C@H]3C(=O)N(C)CC(=O)N(C)[C@@H](C(C)C)C(=O)O[C@@H]2C)c(N)c1=O` [Actinomycin D] (I: T[dV]P[Sar][NMeV] / II: T[dV]P[Sar][NMeV]; ester I:1-I:C, II:1-II:C; linker I:N-II:N via Actinocin(9to1)): the “growth inhibition effect on the strain (sampling errors confirmed, FIG. 3)” value in test [1] is recorded as “growth inhibition effect”. Besides, the “PF2DT: PFDT of the sample obtained from 20 generation subculture” value (shortened to “PF2DT: PFDT of the sample obtained”) in test [1] (setting [4]) turned out to be 0.709. Moreover, in test [1] (setting [5]), the “PF1DT: PFDT of the sample obtained from 10 generation subculture” value (“PF1DT: PFDT of the sample obtained” below) was 0.650.
On to `C[C@H]1CCC/C=C/[C@@H]2C[C@H](O)C[C@H]2[C@H](O)/C=C/C(=O)O1` [Brefeldin A], for which the “PF2DT: PFDT of the sample obtained” value in test [1] (setting [4]) is 0.986. The “PF1DT: PFDT of the sample obtained” value in test [1] (setting [5]) is given as 0.973.
For the compound `Clc1ccccc1C(c1ccccc1)(c1ccccc1)n1ccnc1` [Clotrimazole], in test [2] (gene erg11, dose 0.1 μM), the “−log (p) (Spo)” value is on record as −13.15.
Take `C=C1[C@@H](C)[C@H]2[C@H](Cc3ccccc3)NC(=O)[C@]23OC(=O)/C=C/[C@H](O)CCC[C@@H](C)C/C=C/[C@H]3[C@@H]1O` [Cytochalasin B]: in test [1] (setting [4]), the “PF2DT: PFDT of the sample obtained” value is recorded as 0.785. Besides, the “PF1DT: PFDT of the sample obtained” value in test [1] (setting [5]) stood at 0.954.
With `COc1ccc([C@@H]2Sc3ccccc3N(CCN(C)C)C(=O)[C@@H]2OC(C)=O)cc1.Cl` [Dilitiazem hydrochloride], the “PF2DT: PFDT of the sample obtained” value in test [1] (setting [4]) turned out to be 0.890. Also, the “PF1DT: PFDT of the sample obtained” value in test [1] (setting [5]) is reported as 0.896.
Turning to `OCCN(CCO)c1nc(N2CCCCC2)c2nc(N(CCO)CCO)nc(N3CCCCC3)c2n1` [Dipyridamole], the “growth inhibition effect on the strain (sampling errors confirmed, FIG. 3)” value in test [1] is on record as “growth inhibition effect”.
As for `COc1cccc2c1C(=O)c1c(O)c3c(c(O)c1C2=O)C[C@@](O)(C(=O)CO)C[C@@H]3O[C@H]1C[C@H](N)[C@H](O)[C@H](C)O1` [Doxorubicin], the “−log (p) (Spo)” value in test [2] (gene rpa2, dose 24 μM) is −15.09; in test [2] (gene vma1, dose 24 μM) it was −28.26; in test [2] (gene vma7, dose 24 μM), −6.287. Further, the “−log (p) (Sce)” value in test [3] (gene RPA135, dose 62.5) was −6.279; in test [3] (gene TFP1, dose 62.5), −8.374; in test [3] (gene VMA7, dose 62.5), −28.85.
Take `CCCCOc1ccc(C(=O)CCN2CCCCC2)cc1` [Dyclonine]: the “−log (p) (Spo)” value in test [2] (gene SPAC22F8.08, dose 68 μM) is −12.19; in test [2] (gene SPCC1450.10c, dose 68 μM), −6.928; in test [2] (gene rpn12, dose 68 μM) it was −40.98. For the same compound, the “growth inhibition effect on the strain (sampling errors confirmed, FIG. 3)” value in test [1] is reported as “growth inhibition effect”. In addition, the “−log (p) (Sce)” value in test [3] (gene NAR1, dose 500) is recorded as −4.84; in test [3] (gene RPN12, dose 500) it was −4.338; in test [3] (gene SEC24, dose 500), −6.632.
On to `CC[C@H]1OC(=O)[C@H](C)[C@@H](O[C@H]2C[C@@](C)(OC)[C@@H](O)[C@H](C)O2)[C@H](C)[C@@H](O[C@@H]2O[C@H](C)C[C@H](N(C)C)[C@H]2O)[C@](C)(O)C[C@@H](C)C(=O)[C@H](C)[C@@H](O)[C@]1(C)O` [Erythromycin], for which the “−log (p) (Spo)” value in test [2] (gene SPAC688.09, dose 250 μM) is reported as −42.17. Besides, in test [3] (gene RIM2, dose 2.5 mg/ml), the “−log (p) (Sce)” value is given as −4.63.
Regarding `O=C(CCCN1CCC(O)(c2ccc(Cl)cc2)CC1)c1ccc(F)cc1` [Haloperidol], the “−log (p) (Spo)” value in test [2] (gene fet5, dose 88.3 μM) was −4.402. The “−log (p) (Sce)” value in test [3] (gene YLR243W, dose 125) was −7.301.
Consider `CN(Cc1cnc2nc(N)nc(N)c2n1)c1ccc(C(=O)N[C@@H](CCC(=O)O)C(=O)O)cc1` [Methotrexate], for which the “−log (p) (Spo)” value in test [2] (gene ssr2, dose 500 μM) was −4.28. Moreover, the “−log (p) (Sce)” value in test [3] (gene RSC8, dose 250) is given as −4.275.
With `CO[C@@]12[C@H](COC(N)=O)C3=C(C(=O)C(C)=C(N)C3=O)N1C[C@@H]1N[C@@H]12` [Mitomycin C], the “−log (p) (Spo)” value in test [2] (gene cdc10, dose 80 μM) is reported as −6.16; in test [2] (gene snf21, dose 80 μM), −4.022. Further, the “PF2DT: PFDT of the sample obtained” value in test [1] (setting [4]) was determined as 0.756. Further, the “PF1DT: PFDT of the sample obtained” value in test [1] (setting [5]) is listed as 0.840. In addition, the “−log (p) (Sce)” value in test [3] (gene SPC105, dose 1000) was −14.52; in test [3] (gene STH1, dose 1000) it was −5.49; in test [3] (gene SWI6, dose 1000), −5.228.
`CN(C/C=C/C#CC(C)(C)C)Cc1cccc2ccccc12` [Terbinafine]: the “−log (p) (Spo)” value in test [2] (S. pombe gene not printed (ortholog of RRP1), dose 0.03 μM) is −6.1; in test [2] (gene erg1, dose 0.015 μM), −24.83; in test [2] (gene erg1, dose 0.03 μM) it was −49.77. Further, the “−log (p) (Sce)” value in test [3] (gene ERG1, dose 2.5 ug/ml) was −80.59; in test [3] (gene RRP1, dose 7.2 μM) it was −4.515.
Regarding `Cn1c(=O)c2[nH]cnc2n(C)c1=O` [Theophylline anhydrous], the “PF2DT: PFDT of the sample obtained” value in test [1] (setting [4]) is 0.924. In addition, the “PF1DT: PFDT of the sample obtained” value in test [1] (setting [5]) is 0.887.
On to Tunicamycin, for which the “−log (p) (Spo)” value in test [2] (gene gpt2 heterozygous deletion, dose 0.03125 μM) is −4.976. The “PF2DT: PFDT of the sample obtained” value in test [1] (setting [4]) was determined as 1.027; in test [1] (setting [6]), 1.007. Also, the “PF1DT: PFDT of the sample obtained” value in test [1] (setting [5]) is listed as 0.935; in test [1] (setting [6]), 0.954. Besides, the “−log (p) (Sce)” value in test [3] (gene ALG7, dose 0.015 μM) is −5.227; in test [3] (gene ALG7, dose 150 ng/mL), −24.
